Data on five compounds can be found in article PMC2742655 (Bioorganic & medicinal chemistry letters, 2009).

Experiment [1] concerns P. falciparum trophozoites (food vacuole). The note with it: parasites incubated with compound; cited from earlier work.
In experiment [2] the test system is P. falciparum FCR3 (atovaquone resistant). The experiment can be described thus: Antiplasmodial activity, FCR3 strain. In kind it is cell-based. The following applies: Plasmodium falciparum, FCR3, read-out: IC50 FCR3.
The test system of experiment [3] is P. falciparum 3D7 (chloroquine-sensitive). Description: Antiplasmodial activity, 3D7 strain. In kind it is cell-based. The following applies: Plasmodium falciparum, 3D7, read-out: IC50 3D7.
Experiment [4] concerns P. falciparum D6 (chloroquine sensitive, mefloquine resistant). The experiment can be described thus: Antiplasmodial activity, D6 strain. The class given is cell-based. The note with it: Plasmodium falciparum, D6, read-out: IC50 D6.
Experiment [5] has as its system P. falciparum V1/S (chloroquine and pyrimethamine resistant). Description: microbe, parasite or virus in culture. The class given is cell-based. The note with it: Plasmodium falciparum, read-out: IC50 VI/S.
Experiment [6] has as its system P. falciparum W2 strain (chloroquine-resistant). Description: Antiplasmodial activity, growth of P. falciparum W2 strain. The class given is cell-based. The note with it: Plasmodium falciparum, W2, read-out: IC50 W2.
The target in experiment [7] is T1, falcipain-2 (FP-2) (Plasmodium falciparum, UniProt Q8I6U4).
T1 sequence (Q8I6U4 244-484): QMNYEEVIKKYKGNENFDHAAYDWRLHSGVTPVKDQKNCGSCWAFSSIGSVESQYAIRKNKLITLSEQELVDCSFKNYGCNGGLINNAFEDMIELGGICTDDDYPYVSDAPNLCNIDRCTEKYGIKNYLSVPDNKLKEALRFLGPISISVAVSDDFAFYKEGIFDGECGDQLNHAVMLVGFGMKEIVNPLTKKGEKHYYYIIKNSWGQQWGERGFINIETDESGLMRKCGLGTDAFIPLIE
The class given is biochemical. The following applies: ratio 6d:12d:5, relative to 5 = 1.

Consider `CC(C)C[C@H](NC(=O)[C@H]1O[C@@H]1C(=O)O)C(=O)NCCCCN=C(N)N` [Compound E64, E64], for which the “swollen food vacuole abnormality (block in hemoglobin hydrolysis)” value in experiment [1] was “observed”.

In the case of `CCN(CC)CCCC(C)Nc1ccnc2cc(Cl)ccc12` (stereo not drawn) [Chloroquine], the IC50 in experiment [2] was determined as 0.0511 ± 0.0001 µM; in experiment [3] it was 0.0116 ± 0.0011 µM; in experiment [4], 0.0169 ± 0.0021 µM; in experiment [5], 0.065 ± 0.0041 µM; in experiment [6], 0.0781 ± 0.00691 µM.

On to `CC(C)C[C@H](NC(=O)c1ccc(CO[C@H]2O[C@@H]3O[C@@]4(C)CC[C@H]5[C@H](C)CC[C@@H]([C@H]2C)[C@@]35OO4)cc1)C(=O)N[C@H](/C=C/S(=O)(=O)c1ccccc1)CCc1ccccc1` [Compound 6d], for which the “IC50 ratio for FP-2 inhibition” value in experiment [7] stood at 1650.

As to `CC(C)C[C@H](NC(=O)OC(C)(C)C)C(=O)N[C@H](/C=C/S(=O)(=O)c1ccccc1)CCc1ccccc1` [Compound 12d], the “IC50 ratio for FP-2 inhibition” value in experiment [7] stood at 70.

As for `CC(C)C[C@H](NC(=O)N1CCOCC1)C(=O)N[C@H](/C=C/S(=O)(=O)c1ccccc1)CCc1ccccc1` [Compound 5, Mu-Leu-hPhe-VSPh], the “IC50 ratio for FP-2 inhibition” value in experiment [7] was 1.
